# Assay results published in paper doi:10.1101/2021.03.27.437323v2 (biorxiv, 2021).
# Biological target: SARS-CoV-2 main protease (M^pro; NSP5; 3CL M^pro) (Severe acute respiratory syndrome coronavirus 2, UniProt P0DTD1)
# Test: biochemical
# Conditions: read-out: % Residual activity at 20 µM
row,Structure (SMILES),remaining activity at 20 µM [%]
1,Cc1ccccc1CC(=O)NC(Cc1ccccc1)c1nc2ccccc2[nH]1 (stereo not drawn) [MCULE-2322094178],83
2,COc1ccc(-c2[nH]ncc2CNCc2ccccc2C)cc1 [MCULE-5715268546],83
3,O=C(NC(Cc1ccccc1)c1nc2ccccc2[nH]1)c1cccc(F)c1 (stereo not drawn) [MCULE-6499664919],83
